Measured values as given in ChEMBL document CHEMBL4622974, “Leveraging an Open Science Drug Discovery Model to Develop CNS-Penetrant ALK2 Inhibitors for the Treatment of Diffuse Intrinsic Pontine Glioma” (J Med Chem, 2020).
pIC50: −log10 of the molar value. Active and inactive are the calls of the source. No cut-off for these calls is given here.

Tests used:
[1] = Half life in CB17 SCID mouse at 10 mg/kg, po after 0.25 to 24 hrs by LC/MS/MS method; format: ADME, organism-based; settings: in vivo
[2] = biological target: TRAF2 and NCK-interacting protein kinase (Homo sapiens, UniProt Q9UKE5); assay: Inhibition of TNIK (unknown origin)
[3] = biological target: Tyrosine-protein kinase ABL1 (Homo sapiens, UniProt P00519); assay: Inhibition of ABL1 (unknown origin)
Chain of Tyrosine-protein kinase ABL1 (P00519 whole entry): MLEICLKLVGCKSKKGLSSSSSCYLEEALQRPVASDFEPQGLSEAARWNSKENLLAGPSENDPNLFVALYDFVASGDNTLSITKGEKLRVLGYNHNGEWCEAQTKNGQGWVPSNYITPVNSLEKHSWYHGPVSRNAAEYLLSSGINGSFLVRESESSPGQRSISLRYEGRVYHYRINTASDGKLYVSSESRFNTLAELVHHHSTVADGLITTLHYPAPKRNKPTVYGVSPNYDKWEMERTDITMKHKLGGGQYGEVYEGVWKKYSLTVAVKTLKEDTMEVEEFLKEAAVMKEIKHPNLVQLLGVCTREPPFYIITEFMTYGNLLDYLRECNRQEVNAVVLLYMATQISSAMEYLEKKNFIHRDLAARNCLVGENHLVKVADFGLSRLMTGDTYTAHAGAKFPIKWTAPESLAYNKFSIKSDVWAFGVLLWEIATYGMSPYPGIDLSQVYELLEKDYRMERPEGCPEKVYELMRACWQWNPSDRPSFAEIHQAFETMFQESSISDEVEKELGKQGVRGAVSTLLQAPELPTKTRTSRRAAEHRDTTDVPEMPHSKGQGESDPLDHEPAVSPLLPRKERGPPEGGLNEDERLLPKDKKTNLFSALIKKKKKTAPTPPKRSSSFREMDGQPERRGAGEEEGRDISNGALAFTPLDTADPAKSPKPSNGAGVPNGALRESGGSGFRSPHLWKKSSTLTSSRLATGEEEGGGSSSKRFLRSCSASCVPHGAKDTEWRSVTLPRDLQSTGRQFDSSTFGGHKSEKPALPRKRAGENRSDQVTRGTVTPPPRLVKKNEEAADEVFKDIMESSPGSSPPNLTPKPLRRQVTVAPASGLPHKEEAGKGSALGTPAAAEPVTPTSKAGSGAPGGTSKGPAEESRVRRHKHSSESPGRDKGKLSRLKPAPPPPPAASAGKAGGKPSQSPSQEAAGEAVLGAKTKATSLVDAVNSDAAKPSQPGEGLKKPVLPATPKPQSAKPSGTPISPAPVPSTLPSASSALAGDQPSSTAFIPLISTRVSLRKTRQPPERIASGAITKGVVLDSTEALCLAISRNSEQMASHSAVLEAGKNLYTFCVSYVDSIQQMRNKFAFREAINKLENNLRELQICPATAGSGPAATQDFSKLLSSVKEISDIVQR

[4] = Ratio of drug level in brain to plasma in CB17 SCID mouse at 100 mg/kg, po measured at 4 h; format: ADME, organism-based; settings: brain and plasma, read-out: BPR
[5] = Volume of distribution at steady state in CB17 SCID mouse at 2 mg/kg, iv after 0.25 to 24 hrs by LC/MS/MS method; format: ADME, organism-based; settings: in vivo, read-out: Vdss
[6] = Volume of distribution at steady state in SD rat at 2 mg/kg, iv after 0.25 to 24 hrs by LC/MS/MS method; format: ADME, organism-based; settings: in vivo, read-out: Vdss
[7] = biological target: Protein-tyrosine kinase 6 (Homo sapiens, UniProt Q13882); assay: Inhibition of BRK (unknown origin)
[8] = Toxicity in C57BL/6 mouse assessed as body weight loss at 25 mg/kg, po QD administered for 5 days measured after 24 hrs relative to control; format: organism-based; settings: in vivo
[9] = Protein binding in human plasma assessed as free fraction at 5 uM after 4 hrs by rapid equilibrium dialysis; format: ADME, cell-free
[10] = Clearance in SD rat at 2 mg/kg, iv after 0.25 to 24 hrs by LC/MS/MS method; format: ADME, organism-based; settings: in vivo
[11] = Toxicity in C57BL/6 mouse assessed as body weight loss at 50 mg/kg, po QD administered for 5 days measured after 24 hrs relative to control; format: organism-based; settings: in vivo
[12] = Toxicity in CB17 SCID mouse assessed as behavioural abnormalities at 100 mg/kg, po measured after 24 hrs; format: organism-based; settings: in vivo
[13] = Toxicity in CB17 SCID mouse assessed as physical abnormalities at 100 mg/kg, po measured after 24 hrs; format: organism-based; settings: in vivo
[14] = AUCinfinity in SD rat at 10 mg/kg, po after 0.25 to 24 hrs by LC/MS/MS method; format: ADME, organism-based; design: dose 10 mg/kg, route oral, time infinity; settings: in vivo
[15] = Toxicity in CB17 SCID mouse assessed as induction of adverse effect at 10 mg/kg, po; format: organism-based; settings: in vivo
[16] = biological target: Mitogen-activated protein kinase kinase kinase 20 (Homo sapiens, UniProt Q9NYL2); assay: Inhibition of ZAK (unknown origin)
[17] = Oral bioavailability in SD rat at 10 mg/kg after 0.25 to 24 hrs by LC/MS/MS method; format: ADME, organism-based; settings: in vivo
[18] = Cmax in CB17 SCID mouse at 10 mg/kg, po after 0.25 to 24 hrs by LC/MS/MS method; format: ADME, organism-based; design: dose 10 mg/kg, route oral; settings: in vivo
[19] = Oral bioavailability in CB17 SCID mouse at 10 mg/kg after 0.25 to 24 hrs by LC/MS/MS method; format: ADME, organism-based; settings: in vivo
Misshapen-like kinase 1 = Misshapen-like kinase 1 (Homo sapiens, UniProt Q8N4C8); assay: Inhibition of MINK (unknown origin)
[20] = biological target: Epithelial discoidin domain-containing receptor 1 (Homo sapiens, UniProt Q08345); assay: Inhibition of DDR1 (unknown origin)
Chain of Epithelial discoidin domain-containing receptor 1 (Q08345 whole entry, the tested form may be a part): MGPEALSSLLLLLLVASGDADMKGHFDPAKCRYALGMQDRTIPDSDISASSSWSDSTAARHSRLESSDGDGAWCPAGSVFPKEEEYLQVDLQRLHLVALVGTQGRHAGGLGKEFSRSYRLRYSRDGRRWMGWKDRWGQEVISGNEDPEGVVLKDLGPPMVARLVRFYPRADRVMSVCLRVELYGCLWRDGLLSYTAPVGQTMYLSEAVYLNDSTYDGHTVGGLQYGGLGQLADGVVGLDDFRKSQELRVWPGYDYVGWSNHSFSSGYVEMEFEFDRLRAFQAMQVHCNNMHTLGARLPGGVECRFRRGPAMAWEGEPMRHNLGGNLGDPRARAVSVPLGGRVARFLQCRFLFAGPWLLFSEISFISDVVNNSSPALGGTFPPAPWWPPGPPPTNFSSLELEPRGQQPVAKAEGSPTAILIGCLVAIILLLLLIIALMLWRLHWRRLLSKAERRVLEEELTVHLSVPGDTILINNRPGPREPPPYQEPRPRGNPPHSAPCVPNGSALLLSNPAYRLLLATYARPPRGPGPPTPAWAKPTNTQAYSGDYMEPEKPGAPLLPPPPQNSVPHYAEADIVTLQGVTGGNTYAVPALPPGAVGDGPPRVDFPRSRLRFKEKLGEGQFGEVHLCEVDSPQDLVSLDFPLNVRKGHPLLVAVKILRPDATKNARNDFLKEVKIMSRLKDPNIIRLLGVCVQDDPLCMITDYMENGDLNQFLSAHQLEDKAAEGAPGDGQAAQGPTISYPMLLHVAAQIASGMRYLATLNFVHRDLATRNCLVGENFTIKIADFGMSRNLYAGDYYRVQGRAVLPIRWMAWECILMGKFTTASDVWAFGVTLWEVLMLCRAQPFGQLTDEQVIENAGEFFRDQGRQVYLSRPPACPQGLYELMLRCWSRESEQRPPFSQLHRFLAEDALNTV

[21] = Unbound plasma concentration in CD-1 mouse […] at 1 mg/kg, iv measured at 2 hrs by LC/MS/MS method; format: ADME, organism-based; settings: in vivo
[22] = Toxicity in CB17 SCID mouse assessed as induction of adverse effect at 2 mg/kg, iv; format: organism-based; settings: in vivo
[23] = Half life in human liver microsomes at 1 uM incubated for 60 mins by LC/MS analysis; format: ADME, Microsome
[24] = Growth inhibition of human SU-DIPG-XXI cells harboring ACVR1 G328W mutant; format: functional
[25] = Half life in SD rat at 10 mg/kg, po after 0.25 to 24 hrs by LC/MS/MS method; format: ADME, organism-based; settings: in vivo
[26] = Toxicity in C57BL/6 mouse assessed as gross pathology at 25 mg/kg, po QD administered for 5 days measured after 24 hrs relative to control; format: organism-based; settings: in vivo
[27] = Cmax in SD rat at 10 mg/kg, po after 0.25 to 24 hrs by LC/MS/MS method; format: ADME, organism-based; design: dose 10 mg/kg, route oral; settings: in vivo
[28] = Half life in CD1 mouse liver microsomes at 1 uM incubated for 60 mins by LC/MS analysis; format: ADME, Microsome
Activin receptor type-1B = biological target: T1, Activin receptor type-1B (Homo sapiens, UniProt P36896); assay: Inhibition of human ALK4 using casein as substrate in presence of [gamma-33P]-ATP by radiometric hotspot assay; format: ADME
T1 sequence (P36896 whole entry): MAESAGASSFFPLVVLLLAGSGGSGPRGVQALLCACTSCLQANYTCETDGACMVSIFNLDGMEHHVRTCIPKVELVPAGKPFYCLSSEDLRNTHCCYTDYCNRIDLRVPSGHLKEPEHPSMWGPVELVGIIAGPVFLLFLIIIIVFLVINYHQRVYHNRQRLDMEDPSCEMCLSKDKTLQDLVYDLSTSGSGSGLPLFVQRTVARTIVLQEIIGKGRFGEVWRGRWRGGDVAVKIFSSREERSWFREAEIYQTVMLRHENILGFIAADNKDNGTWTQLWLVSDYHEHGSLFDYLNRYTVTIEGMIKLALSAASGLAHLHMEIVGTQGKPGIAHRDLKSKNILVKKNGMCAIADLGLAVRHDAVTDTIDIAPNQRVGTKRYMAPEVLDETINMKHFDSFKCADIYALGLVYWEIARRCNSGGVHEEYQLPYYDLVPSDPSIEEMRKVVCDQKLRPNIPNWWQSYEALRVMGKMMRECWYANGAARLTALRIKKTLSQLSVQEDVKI

[29] = Clearance in CB17 SCID mouse at 2 mg/kg, iv after 0.25 to 24 hrs by LC/MS/MS method; format: ADME, organism-based; settings: in vivo
[30] = Stability in CD1 mouse liver microsomes assessed as compound remaining at 1 uM incubated for 60 mins by LC/MS analysis; format: ADME, Microsome; settings: read-out: Stability
[31] = Ratio of drug level in brain to plasma in CB17 SCID mouse at 50 mg/kg, po measured at 4 h; format: ADME, organism-based; settings: read-out: BPR
[32] = Drug level in CD-1 mouse brain at 1 mg/kg, iv measured at 2 hrs; format: ADME, organism-based; settings: read-out: Drug uptake
[33] = Growth inhibition of human HSJD-DIPG-007 cells harboring ACVR1 R206H mutant; format: functional
[34] = Plasma concentration in CD-1 mouse at 1 mg/kg, iv measured at 2 hrs by LC/MS/MS method; format: ADME, organism-based
[35] = Protein binding in human plasma at 5 uM after 4 hrs by rapid equilibrium dialysis; format: ADME, cell-free; settings: read-out: PPB (converted)
[36] = AUCinfinity in CB17 SCID mouse at 10 mg/kg, po after 0.25 to 24 hrs by LC/MS/MS method; format: ADME, organism-based; design: dose 10 mg/kg, time infinity, route oral; settings: in vivo
[37] = Stability in human liver microsomes assessed as compound remaining at 1 uM incubated for 60 mins by LC/MS analysis; format: ADME, Microsome; settings: read-out: Stability
[38] = Ratio of drug level in brain to plasma in CB17 SCID mouse at 10 mg/kg, po measured at 4 h; format: ADME, organism-based; settings: brain and plasma, read-out: BPR

Row | SMILES | half-life [1] | Kp at 4 h [4] | Vd [5] | Vd [6] | fraction unbound at 4 h, 5 µM [9] | clearance [10] | Activity [12] | Activity [13] | AUC(0-inf) [14] | Activity [15] | bioavailability [17] | Cmax [18] | bioavailability [19] | Activity [22] | half-life at 1 µM [23] | GI50 [24] | half-life [25] | Cmax [27] | half-life at 1 µM [28] | pIC50 (Activin receptor type-1B) | other results
1 | COc1cc(-c2cncc(-c3ccc(N4CCNCC4)cc3)c2C)cc(OC)c1OC | 3.11 h | 1.1 | 2.05 L/kg | 5.22 L/kg | 0.057 | 22.1 mL/min/kg | Non-Toxic | Non-Toxic | 17.4 µM·h | Non-Toxic | 96% | 6160 nM | 100% | Non-Toxic | > 1 h | 0.052 µM | 3.58 h | 1280 nM | > 1 h | 5.87 | pIC50 [2]: 7.02; pIC50 [3]: 6.03 to 6.47; pIC50 [7]: 6.03 to 6.47; Activity [8]: Non-Toxic; Activity [11]: Non-Toxic; pIC50 [16]: 6.03 to 6.47; pIC50 (Misshapen-like kinase 1): 6.03 to 6.47; pIC50 [20]: 7.39; Cp(f) [21]: 14 nM; Activity [26]: Non-Toxic; clearance [29]: 12.7 mL/min/kg; remaining at 1 h, 1 µM [30]: 64.6%; Kp at 4 h [31]: 1.8; concentration at 2 h [32]: 123 nM; GI50 [33]: 0.13 µM; concentration at 2 h [34]: 156 nM; fraction unbound at 4 h, 5 µM [35]: 0.057; AUC(0-inf) [36]: 51.7 µM·h; remaining at 1 h, 1 µM [37]: 71.4%
2 | COc1cc(-c2cncc(-c3ccc(C4CCN(C)CC4)cc3)c2C)cc(OC)c1OC | 3.67 h | 1.55 | 2.44 L/kg | 4.33 L/kg | 0.05 | 15.1 mL/min/kg | Non-Toxic | Non-Toxic | 12.9 µM·h | Non-Toxic | 50% | 4740 nM | 74% | Non-Toxic | > 1 h | 0.214 µM | 3.9 h | 1160 nM | > 1 h | < 5.70 | inhibition [2]: Active; inhibition [3]: Active; inhibition [7]: Active; inhibition [16]: Active; Kp at 4 h [38]: 0.82; inhibition (Misshapen-like kinase 1): Active; inhibition [20]: Active; clearance [29]: 8.9 mL/min/kg; remaining at 1 h, 1 µM [30]: 55.5%; GI50 [33]: 0.036 µM; fraction unbound at 4 h, 5 µM [35]: 0.05; AUC(0-inf) [36]: 32.4 µM·h; remaining at 1 h, 1 µM [37]: 71.2%
